Laboratory results as given in ChEMBL document CHEMBL5390250, “Synthesis and biological evaluation of bi-modal BODIPY-conjugated Hoechst applicable for Auger-electron and photodynamic cancer therapy” (Bioorg Med Chem Lett, 2023).
One block for each compound: values may come before it. Calls of active or inactive are those of the source. The calls are words filed in the database; no cut-off is given here.

Key:
[1] = Drug uptake in nucleus of human HeLa cells measured upto 6 hrs; assay type: ADME, subcellular
[2] = tested on: HeLa; test: Antiproliferative activity against human HeLa cells assessed as auger electron mediated reduction in cell viability at 18.5 kBq measured after 6 hrs by MTT assay relative to control; assay type: functional
[3] = Drug uptake in human HeLa cells assessed as increase in intracellular fraction measured upto 6 hrs; assay type: ADME, cell-based
[4] = tested on: HeLa; test: Antiproliferative activity against human HeLa cells assessed as auger electron mediated reduction in cell viability measured after 6 hrs by MTT assay; assay type: functional, cell-based; conditions: dose <= 18.5 kBq, tested as the 125I-labelled form
[5] = Induction of singlet oxygen production in MeOH assessed as singlet oxygen quantum yield; assay type: functional
[6] = Fluorescence property of compound in toluene assessed as quantum yield; assay type: physicochemical
[7] = Absorption property of compound in MeOH assessed as maximal wavelength by spectroscopic analysis; assay type: physicochemical
[8] = tested on: HeLa; test: Photocytotoxicity against human HeLa cells assessed as reduction in cell viability preincubated for 24 hrs followed by light irradiation at 525 nm for 6 mins by MTT assay; assay type: functional, cell-based; conditions: for Activity: dose <= 1600.0 nM, time 1446.0 min; for IC50: light or radiation study
[9] = Fluorescence property of compound in MeOH assessed as molar extinction coefficient by spectroscopic analysis; assay type: physicochemical
[10] = tested on: HeLa; test: Induction of DNA damage in human HeLa cells assessed as increase in gamma H2AX foci density in nucleus measured after 2 hrs by immmunofluorescence staining based analysis; assay type: functional, cell-based; conditions: dose <= 18.5 kBq, tested as the 125I-labelled form
[11] = Emission property of compound in MeOH assessed as maximal wavelength by spectroscopic analysis; assay type: physicochemical
[12] = tested on: HeLa; test: Antiproliferative activity against human HeLa cells assessed as reduction in cell viability measured after 6 hrs by MTT assay; assay type: functional, cell-based
[13] = tested on: HeLa; test: Induction of DNA damage in human HeLa cells assessed as increase in gamma H2AX foci in nuclei at 18.5 kBq measured after 2 hrs by immmunofluorescence staining based analysis; assay type: functional, cell-based; conditions: tested as the 125I-labelled form
[14] = Fluorescence property of compound in MeOH assessed as quantum yield by spectroscopic analysis; assay type: physicochemical
[15] = tested on: HeLa; test: Photocytotoxicity against human HeLa cells assessed as reduction in cell viability at 1600 nM preincubated for 24 hrs followed by light irradiation at 525 nm for 6 mins by MTT assay relative to control; assay type: functional
[16] = Induction of singlet oxygen production in MeOH assessed as singlet oxygen quantum yield at 410 nm by DPBF based assay; assay type: functional
[17] = tested on: HeLa; test: Photocytotoxicity against human HeLa cells assessed as reduction in cell viability upto 1600 nM measured after 24 hrs under dark condition by MTT assay; assay type: functional, cell-based
[18] = Fluorescence property of compound in MeOH assessed as molar extinction coefficient; assay type: physicochemical
[19] = Absorption property of compound in MeOH assessed as maximal wavelength; assay type: physicochemical
[20] = Emission property of compound in MeOH assessed as maximal wavelength; assay type: physicochemical

Compound: CN(C)c1ccc2cc3ccc(N(C)C)cc3[n+](CCCCCNC(=O)c3ccc(I)cc3)c2c1
- Activity [4]: Dose-Dependent Effect

Compound: O=C(O)c1c(Cl)c(Cl)c(Cl)c(Cl)c1-c1c2cc(I)c(=O)c(I)c-2oc2c(I)c(O)c(I)cc12
- Activity [5]: 0.76

Compound: CN(C)c1ccc2cc3ccc(N(C)C)cc3[n+](CCCCCNC(=O)c3ccc([125I])cc3)c2c1
- Activity [2]: 64%

Now from value to compound, other results behind:

- Drug uptake [1]: Active
- Drug uptake [3]: Active
Compound: CC1=C([125I])C(C)=[N+]2C1=C(c1ccc(C(=O)NCCCCOc3ccc(-c4nc5ccc(-c6nc7ccc(N8CCN(C)CC8)cc7[nH]6)cc5[nH]4)cc3)cc1)c1c(C)cc(C)n1[B-]2(F)F
- Activity [2]: 60%

- Drug uptake [1]: Active
- Drug uptake [3]: Active
Compound: CC1=C([125I])C(C)=[N+]2C1=C(c1ccc(C(=O)NCCCCOc3ccc(-c4nc5ccc(-c6nc7ccc(N8CCN(C)CC8)cc7[nH]6)cc5[nH]4)cc3)cc1)c1c(C)c(I)c(C)n1[B-]2(F)F
- Activity [2]: 43%

- Activity [6]: 0.11
Compound: CC1=C(I)C(C)=[N+]2C1=C(c1ccc(C(=O)ON3C(=O)CCC3=O)cc1)c1c(C)cc(C)n1[B-]2(F)F

- Activity [7]: 533 nm
- Activity [9]: 20600 M⁻¹ cm⁻¹
- Activity [11]: 552 nm
- Activity [14]: 0.04
Compound: CC1=C(I)C(C)=[N+]2C1=C(c1ccc(C(=O)NCCCCOc3ccc(-c4nc5ccc(-c6nc7ccc(N8CCN(C)CC8)cc7[nH]6)cc5[nH]4)cc3)cc1)c1c(C)c(I)c(C)n1[B-]2(F)F
- Activity [4]: Dose-Dependent Effect
- Activity [8]: Dose-Dependent Effect
- IC50 [8]: 195 nM
- Activity [10]: Dose-Dependent Effect
- Activity [12]: inactive
- Activity [13]: Active
- Activity [15]: 29%
- Activity [16]: 0.41
- Activity [17]: inactive

- Activity [18]: 22000 M⁻¹ cm⁻¹
- Activity [19]: 517 nm
- Activity [20]: 532 nm
- Activity [14]: 0.06
Compound: CC1=C(I)C(C)=[N+]2C1=C(c1ccc(C(=O)NCCCCOc3ccc(-c4nc5ccc(-c6nc7ccc(N8CCN(C)CC8)cc7[nH]6)cc5[nH]4)cc3)cc1)c1c(C)cc(C)n1[B-]2(F)F
- Activity [4]: Dose-Dependent Effect
- Activity [8]: Dose-Dependent Effect
- IC50 [8]: 702 nM
- Activity [10]: Dose-Dependent Effect
- Activity [13]: Active
- Activity [15]: 50%
- Activity [16]: 0.32
- Activity [17]: inactive
